{"source": "patent US8178091B2", "about": "“Compositions and methods for the treatment of respiratory disorders” (University of Washington, priority 2007, dated 2012)", "test_system": "lung fibroblasts", "test": "IGF-1 expression in lung fibroblasts", "format": "cell-based", "settings": "not shown", "text": "IGF-1 was implicated as a fibroblast mitogen in BALF from patients with sarcoidosis (Allen et al., Am J Respir Cell Mol Biol 19:250-258 (1998)) and systemic sclerosis (Harrison et al., Clin Sci (Lond) 86:141-148 (1994)). […] In the experiments described herein, IGF-1 mediated cell survival and migration, but not proliferation of normal lung fibroblasts through IGF-1R. The prior studies used either the fetal fibroblast cell line IMR-90 or human fetal embryonic fibroblasts (HFL-1) to examine the proliferative response (Allen et al., Am J Respir Cell Mol Biol 19:250-258 (1998); Harrison et al., Clin Sci (Lond) 86:141-148 (1994)). In contrast, the studies described herein used early passage primary adult lung fibroblasts, which may account for differences in results. In addition, the mitogenic response to IGF in the earlier studies was determined by immunodepletion of IGF from BALF (Allen et al., Am J Respir Cell Mol Biol 19:250-258 (1998); Harrison et al., Clin Sci (Lond) 86:141-148 (1994)). Without wishing to be bound by theory, it is thought that activation of fibroblasts by other growth factors or cytokines such as TGFβ1 in BALF may be necessary for the pro-proliferative effect of IGF (Scarpa et al., Peptides 26:2201-2210 (2005); Danielpour and Song, Cytokine & growth factor reviews 17:59-74 (2006)).", "data": [{"substance": "TGFβ1: growth factor, mediator of fibrosis", "values": [{"measurement": "IGF-1 expression in lung fibroblasts", "value": "significantly upregulated IGF-1 expression"}]}]}
